In general, IC50 refers to the concentration needed to halve the response being measured.

We go through 17 compounds from patent US20240383915A1, “OXAZEPINE COMPOUNDS AND USES THEREOF IN THE TREATMENT OF CANCER” (Genentech, Inc., priority 2021, published 2024).

The structures appear in SMILES notation.

The target of assay [1] is Raf-RBD/KRAS G12D interaction (Homo sapiens (Human), UniProt P01116, G12D). In words: KRAS G12D NanoBRET assay. The conditions noted are these: HCT116. In kind it is cell-based. As to the method: KRAS G12D NanoBRET Assay. Cellular target engagement was assessed by monitoring inhibition of the Raf-RBD/KRAS G12D interaction in a NanoBRET™ assay (Promega). […] Cells were seeded into 384-well white tissue culture-treated assay plates in 40 μL culture medium (RPMI-1640 with 10% fetal bovine serum, 2 mM glutamine, […] puromycin, and 4 ng/mL blasticidin) with doxycycline to induce KRAS G12D-nanoluciferase expression over 20-24 h at 37° C., 5% CO2. The culture medium was then removed and replaced with assay medium (Opti-MEM® with 4% fetal bovine serum) and 0.1 μM HaloTag618 ligand. During the subsequent 4 h incubation at 37° C., 5% CO2, the HaloTag618 ligand binds to the Halotag-labeled KRAS G12D. Compounds solubilized in DMSO were then added as dilution series to the wells in a total volume of 160 nL (0.4% DMSO final), and the plates were incubated overnight at 37° C., 5% CO2. In the final step, 10 μL NanoGlo substrate in Opti-MEM was added to each well, and the emission read at 460 nm (luciferase signal) and 610 nm (NanoBRET signal) on an EnVision plate reader (PerkinElmer). The Raf-RBD/KRAS G12D interaction results in bioluminescence resonance energy transfer (BRET) from the product of the luciferase reaction in the vicinity of the Raf-RBD to the HaloTag ligand acceptor on the KRAS G12D and generates the NanoBRET signal. Binding of compounds to KRAS G12D and disruption of its interaction with Raf-RBD results in reduction of this signal. The luciferase signal and NanoBRET signal for compound wells were divided by the average corresponding signal for DMSO control wells. Then the NanoBRET ratio was calculated by dividing the control-adjusted NanoBRET signal by the similarly adjusted luciferase signal. […] The normalized NanoBRET ratio results were plotted against compound concentration, and the data fit to a 4-parameter Hill equation to determine the IC50 values.
A general note: BRET reads energy transfer from a luciferase to a nearby fluorophore.

The target of another assay is KRAS G12D (Homo sapiens (Human), UniProt P01116, G12D). In words: KRas (G12D) GDP HTRF (BODIPY-GDP exchange TR-FRET). In kind it is biochemical. As to the method:
(§1) KRAS Biochemical Assay—BODIPY-GDP Exchange TR-FRET. Biochemical compound potencies were assessed by evaluating inhibition of SOS1-mediated nucleotide exchange in KRAS G12D. The SOS1-promoted exchange of fluorescently-labeled GDP (BODIPY-GDP) was monitored by time-resolved fluorescence resonance energy transfer (TR-FRET). Compounds solubilized in DMSO were dispensed as concentration series into 384-well white assay plates. A preformed complex of biotin-tagged recombinant human KRAS (1.5 nM mutant G12D or wild type) and 0.15 nM terbium-labeled streptavidin (CisBIO) prepared in 10 μL/well assay buffer (20 mM HEPES, pH 7.5, 50 mM NaCl, 10 mM MgCl2, 0.01% Tween-20 and 1 mM dithiothreitol) was added and allowed to incubate for 10-minutes. The reaction was initiated with the addition of 5 μL of 3 nM recombinant human SOS1 and 300 nM BODIPY-GDP in assay buffer. After a 60-minute incubation, the fluorescence was measured with excitation at 337 nm and emission at 490 and 520 nm. The TR-FRET ratio was determined as the fluorescence at 520 nm divided by the fluorescence at 490 nm multiplied by 10,000. […] The normalized TR-FRET results were plotted against compound concentration, and the data fit to a 4-parameter Hill equation to determine the IC50 values.
A general note: In TR-FRET formats the signal depends on donor and acceptor labels being close together.

For a further assay, the target named is KRAS wild type (Homo sapiens (Human), UniProt P01116). In words: KRas (wt) GDP HTRF (BODIPY-GDP exchange TR-FRET). In kind it is biochemical. The procedure: as §1
A further assay concerns SW480 cells. Description: SW480 proliferation assay. In kind it is cell-based. The conditions noted are these: Homo sapiens, SW480, SW480; read-out: SW480 Prolif IC50 (G12V).
Another assay concerns PC-9 cells. Description: PC9 proliferation assay. In kind it is cell-based, human. The conditions noted are these: Homo sapiens, PC-9, PC9; read-out: PC9 Prolif IC50 (G12V).
The next assay deals with KRas(G12V) (Homo sapiens (Human), UniProt P01116, G12V). Description: KRas(G12V) GDP HTRF (BODIPY-GDP exchange TR-FRET). In kind it is biochemical.
The target of a further assay is KRas (Homo sapiens (Human), UniProt P01116). In words: KRas GDP HTRF (BODIPY-GDP exchange TR-FRET). In kind it is biochemical. The essentials:
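Inhibition of SOS1-mediated exchange of BODIPY-GDP on KRAS G12D, started with 3 nM recombinant human SOS1 and 300 nM BODIPY-GDP and read after 60 min. TR-FRET excitation 337 nm, ratio 520/490 nm ×10,000. IC50 from 4-parameter Hill fit of normalized data.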

Sequence of KRas (P01116-2 other isoform, or with tags, fused parts or gaps): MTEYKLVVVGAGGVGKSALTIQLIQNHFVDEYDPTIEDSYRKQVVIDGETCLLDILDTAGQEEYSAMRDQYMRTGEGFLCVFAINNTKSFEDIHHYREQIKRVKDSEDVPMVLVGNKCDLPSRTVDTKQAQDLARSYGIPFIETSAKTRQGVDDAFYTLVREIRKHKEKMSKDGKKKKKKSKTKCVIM
Sequence of KRAS wild type (P01116-2 other isoform, or with tags, fused parts or gaps): as above
Sequence of KRas(G12V) (P01116-2 other isoform, or with tags, fused parts or gaps G12V): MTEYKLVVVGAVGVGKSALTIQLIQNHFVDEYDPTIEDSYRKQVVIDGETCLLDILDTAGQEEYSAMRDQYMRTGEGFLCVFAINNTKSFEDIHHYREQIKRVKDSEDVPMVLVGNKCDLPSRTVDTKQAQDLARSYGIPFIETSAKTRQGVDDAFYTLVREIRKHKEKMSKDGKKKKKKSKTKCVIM
Sequence of KRAS G12D (P01116-2 other isoform, or with tags, fused parts or gaps G12D): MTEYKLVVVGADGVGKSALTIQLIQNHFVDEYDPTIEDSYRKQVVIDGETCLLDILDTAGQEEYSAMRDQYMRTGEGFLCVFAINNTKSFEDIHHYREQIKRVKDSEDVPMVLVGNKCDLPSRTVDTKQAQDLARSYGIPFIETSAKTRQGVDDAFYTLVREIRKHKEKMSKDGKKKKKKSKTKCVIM
Sequence of Raf-RBD/KRAS G12D interaction (P01116-2 other isoform, or with tags, fused parts or gaps G12D): as above

With `Cc1cc(N)nc(-c2cc3ncnc4c3c(c2Cl)OC[C@H](CC#N)N4C2CCNC2)c1C(F)(F)F` (single isomer, unassigned) [Example 507], the IC50 is at least 10000 nM in assay [1], 276 nM at KRAS G12D and 8650 nM against KRAS wild type.
With `Cc1cc(N)nc(-c2cc3ncnc4c3c(c2Cl)OC[C@H](CC#N)N4C2CCNC2)c1C(F)(F)F` (single isomer, unassigned) [Example 508], the IC50 in assay [1] is at least 10000 nM; at KRAS G12D, 472 nM; against KRAS wild type it was 8110 nM.
Taken in the same sequence, the figures for `C=C1CN2CCC[C@@]2(COc2nc3c4c(c(Cl)c(-c5nc(N)cc(C)c5C(F)(F)F)c(F)c4n2)OCCN3CCN(C)C)C1` (single isomer, unassigned) [Example 514] were at least 10000 nM, 817 nM and 4120 nM.
In the same order, the values of `C=C1CN2CCC[C@@]2(COc2nc3c4c(c(F)c(-c5nc(N)cc(C)c5C(F)(F)F)c(F)c4n2)OCCN3CCN(C)C)C1` (single isomer, unassigned) [Example 524] are at least 10000 nM, 480 nM and 2680 nM.
On to `Cc1cc(N)nc(-c2c(Cl)c3c4c(nc(OCC56COC(C5)C6)nc4c2F)N([C@H](C)c2cccnc2N)CCO3)c1C(F)(F)F` [Example 141, 6-((R)-2-((2-oxabicyclo[2.1.1]hexan-4-yl)methoxy)-4-((R)-1-(2-aminopyridin-3-yl)ethyl)-8-chloro-10-fluoro-5,6-dihydro-4H-[1,4]oxazepino[5,6,7-de]quinazolin-9-yl)-4-methyl-5-(trifluoromethyl)pyridin-2-amine], for which the IC50 with SW480 cells stood at 76 nM; in the assay on PC-9 cells it was 8100 nM; against KRas(G12V), 0.24 nM; against KRas it was 0.77 nM.
In the same order, the values of `COCC12COC(COc3nc4c5c(c(Cl)c(-c6nc(N)cc(C)c6C(F)(F)F)c(F)c5n3)OCCN4[C@H](C)c3cccnc3N)(C1)C2` [Example 149, 6-((R)-4-((R)-1-(2-aminopyridin-3-yl)ethyl)-8-chloro-10-fluoro-2-((4-(methoxymethyl)-2-oxabicyclo[2.1.1]hexan-1-yl)methoxy)-5,6-dihydro-4H-[1,4]oxazepino[5,6,7-de]quinazolin-9-yl)-4-methyl-5-(trifluoromethyl)pyridin-2-amine] are 74 nM, 16000 nM, 0.21 nM and 0.78 nM.
In the case of `Cc1cc(N)nc(-c2c(Cl)c3c4c(nc(OCC56COC(CF)(C5)C6)nc4c2F)N([C@H](C)c2cccnc2N)CCO3)c1C(F)(F)F` [Example 154, 6-((R)-4-((R)-1-(2-aminopyridin-3-yl)ethyl)-8-chloro-10-fluoro-2-((1-(fluoromethyl)-2-oxabicyclo[2.1.1]hexan-4-yl)methoxy)-5,6-dihydro-4H-[1,4]oxazepino[5,6,7-de]quinazolin-9-yl)-4-methyl-5-(trifluoromethyl)pyridin-2-amine], the IC50 in the assay on SW480 cells was 91 nM; in the assay on PC-9 cells, 14000 nM; on KRas(G12V), 0.48 nM; against KRas, 1.1 nM.
Taken in the same sequence, the figures for `Cc1cc(N)nc(-c2c(Cl)c3c4c(nc(OCC56CCC(CC5)OC6)nc4c2F)N([C@H](C)c2cccnc2N)CCO3)c1C(F)(F)F` [Example 157, 6-((R)-2-((2-oxabicyclo[2.2.2]octan-4-yl)methoxy)-4-((R)-1-(2-aminopyridin-3-yl)ethyl)-8-chloro-10-fluoro-5,6-dihydro-4H-[1,4]oxazepino[5,6,7-de]quinazolin-9-yl)-4-methyl-5-(trifluoromethyl)pyridin-2-amine] were 400 nM, 8200 nM, 0.81 nM and 3.2 nM.
For the compound `Cc1cc(N)nc(-c2cc3ncnc4c3c(c2Cl)OCCN4CCN(C)C)c1C(F)(F)F` [Example 501, 6-(8-Chloro-4-(2-(dimethylamino)ethyl)-5,6-dihydro-4H-[1,4]oxazepino[5,6,7-de]quinazolin-9-yl)-4-methyl-5-(trifluoromethyl)pyridin-2-amine], the IC50 in assay [1] was at least 10000 nM; on KRAS G12D it was 4160 nM; on KRAS wild type it was 109000 nM.
With `CNCCN1CCOc2c(Cl)c(-c3nc(N)cc(C)c3C(F)(F)F)cc3ncnc1c23` [Example 503], the IC50 is at least 10000 nM in assay [1], 4620 nM at KRAS G12D and 94300 nM at KRAS wild type.
Taken in the same sequence, the figures for `Cc1cc(N)nc(-c2cc3ncnc4c3c(c2Cl)OCCN4C2CCNC2)c1C(F)(F)F` (stereo not shown) [Example 505] were at least 10000 nM, 1730 nM and 66400 nM.
Taken in the same sequence, the figures for `Cc1cc(N)nc(-c2cc3ncnc4c3c(c2Cl)OCCN4C2CCNC2)c1C(F)(F)F` (stereo not shown) [Example 506] were at least 10000 nM, 2400 nM and 55000 nM.
In the same order, the values of `Cc1cc(N)nc(-c2cc3nc(OC[C@@H]4C[C@@H](F)CN4C)nc4c3c(c2Cl)OCCN4CCN(C)C)c1C(F)(F)F` [Example 509, 6-(8-Chloro-4-(2-(dimethylamino)ethyl)-2-(((2S,4R)-4-fluoro-1-methylpyrrolidin-2-yl)methoxy)-5,6-dihydro-4H-[1,4]oxazepino[5,6,7-de]quinazolin-9-yl)-4-methyl-5-(trifluoromethyl)pyridin-2-amine] are 9850 nM, 164 nM and 1660 nM.
With `Cc1cc(N)nc(-c2cc3nc(OCC45CCCN4CCC5)nc4c3c(c2Cl)OCCN4CCN(C)C)c1C(F)(F)F` [Example 510], the IC50 in assay [1] is at least 10000 nM; against KRAS G12D, 13.6 nM; against KRAS wild type, 240 nM.
As to `C=C1CN2CCC[C@@]2(COc2nc3c4c(c(Cl)c(-c5c(F)ccc6cnn(C)c56)cc4n2)OCCN3CCN(C)C)C1` [Example 512], the IC50 was determined as 174 nM at KRAS G12D and 1110 nM against KRAS wild type.
In the same order, the values of `C=C1CN2CCC[C@@]2(COc2nc3c4c(c(Cl)c(-c5nc(N)cc(C)c5C(F)(F)F)c(F)c4n2)OCCN3C2CCNC2)C1` (stereo partly shown) [Example 515] are 3.39 nM and 20 nM.
In the same order, the values of `C=C1CN2CCC[C@@]2(COc2nc3c4c(c(Cl)c(-c5nc(N)cc(C)c5C(F)(F)F)c(F)c4n2)OCCN3C2CCNC2)C1` (stereo partly shown) [Example 518] are 29 nM and 128 nM.
